| SMILES | viscosity (2% aqueous solution of the active substance) | viscosity of the solution (aqueous 7% solution of the active substance) |
| --- | --- | --- |
| CCCCCCCCCCCCSCC(COP(=O)([O-])OCC1OC(n2cc(C)c(=O)[nH]c2=O)CC1F)OCCCCCCCCCC.[Na+] (centres unmarked) [Example 3 active substance, Na salt of 3′-fluoro-3′-deoxy-5′-thymidylic acid-mono[3-(dodecyl-thio)-2-decyloxypropyl]-ester] | 6 mpas*sec | – |
| CCCCCCCCCCCCSCC(COP(=O)([O-])OCC1OC(n2cc(C)c(=O)[nH]c2=O)CC1N=[N+]=[N-])OCCCCCCCCCC.[Na+] (centres unmarked) [Example 1 active substance, Na salt of 3′-azido-3′-deoxy-5′-thymidylic acid-mono[3-(dodecyl-thio)-2-decyloxypropyl]-ester] | – | 500-600 mpa*sec |

— patent publication US6521262B2, “Solid instant-release forms of administration and process for producing the same” (Heidelberg Pharma Holding GmbH, priority 1996, dated 2003)
